{"source": "patent US20260102397A1", "about": "“PHARMACEUTICAL COMPOSITION FOR TREATING LEUKEMIA COMPRISING FLT3 INHIBITOR” (HANMI PHARM. CO., LTD., priority 2020, published 2026)", "key": {"[1]": {"molecular_target": "T1, SYK (Homo sapiens, UniProt P43405)", "T1 construct": "purchased Thermo Fisher Scientific", "assay": "Kinase inhibition test, Z'-LYTE", "assay_type": "biochemical", "conditions": "read-out: 50% activity inhibition value (IC50), SYK", "method": "Activity measurement was conducted using LanthaScreen test method (wild type and mutation type FLT3) or Z′-LYTE test method (SYK) developed by Thermo Fisher Scientific. LanthaScreen test method is a method of measuring protein activity by measuring fluorescence resonance energy transfer (FRET) signal under the existence of europium-conjugated antibody on the basis of the binding of Alexa Fluor 647-labelled, ATP-competitive kinase inhibitor (kinase tracer-236) to kinase. Z′-LYTE test method is a method using an enzyme which can cut dephosphorylated substrate, and this method measures the activity of kinase protein by measuring two fluorescent FRET signals attached to each end of peptide substrate. The two experiments were all conducted in 384 well plates under the conditions of 50 mM HEPES pH 7.5, 0.01% BRIJ-35, 10 mM MgCl2, 1 mM EGTA, and 1% DMSO."}, "[2]": {"test_system": "MOLM-14 FLT3-ITD/F691L cell strain", "assay": "Mouse model hypodermically implanted with MOLM-14 FLT3-ITD/F691L cell strain", "assay_type": "in vivo", "conditions": "nude mice, MOLM-14 FLT3-ITD/F691L subcutaneous, 30 mg/kg/day oral once daily", "method": "MOLM-14 FLT3-ITD/F691L cell strain was subcutaneously injected into a nude mouse at 3×10^^6 cell/0.15 mL/mouse and the mouse was left to grow.\nThe control group was administered for 13 days and the drug administration groups were administered for 18 days with each pertinent drug.\nThe tumor volume (mm^3) of the surviving mice in each group was plotted on the y-axis, whereas the number of days of medication was plotted on the x-axis. In order to evaluate the effects of the administration of drugs, the results of complete response (CR) in which tumor had completely disappeared were checked. […] (*p<0.05, **p<0.01, ***p<0.001, and ****p<0.0001 Sidk's test was conducted after two-way analysis of variance)"}}}
{"smiles": "Cc1ccc2c(-c3nc(Nc4cc(CN5C[C@@H](C)N[C@@H](C)C5)cc(C5CC5)c4)ncc3Cl)c[nH]c2c1", "note": "[Compound A, 5-chloro-N-(3-cyclopropyl-5-(((3R,5S)-3,5-dimethylpiperazine-1-yl)methyl)phenyl)-4-(6-methyl-1H-indol-3-yl)pyrimidine-2-amin]", "values": [{"measurement": "IC50", "setting": "[1]", "result": 2.9, "unit": "nM"}, {"measurement": "complete response (CR, tumor completely disappeared), day of administration", "setting": "[2]", "result": 12, "unit": "days"}, {"measurement": "volume of tumor compared with Gilteritinib administration group", "setting": "[2]; 18 days, FIG. 1", "result": "reduced more significantly"}]}
